Our source for the IC50 values is patent US20170369444A1, “INHIBITORS OF HISTONE DEMETHYLASES” (Gilead Sciences, Inc., priority 2014, published 2017).

Common to all, as to assay type: biochemical
For one experiment, the target named is T1, KDM4C (JMJD2C) (Homo sapiens, UniProt Q9H3R0).
T1 construct: 1-349; host or cells: E. coli
T1 sequence (Q9H3R0 1-349): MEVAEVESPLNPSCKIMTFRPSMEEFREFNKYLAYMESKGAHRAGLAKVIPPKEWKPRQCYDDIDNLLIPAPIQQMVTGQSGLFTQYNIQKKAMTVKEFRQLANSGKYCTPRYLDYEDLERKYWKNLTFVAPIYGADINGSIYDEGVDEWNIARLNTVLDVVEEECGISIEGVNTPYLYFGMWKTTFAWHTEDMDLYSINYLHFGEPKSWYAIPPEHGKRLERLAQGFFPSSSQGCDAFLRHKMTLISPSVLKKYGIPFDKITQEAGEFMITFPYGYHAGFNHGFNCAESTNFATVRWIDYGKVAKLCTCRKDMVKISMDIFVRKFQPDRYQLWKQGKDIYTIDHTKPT
Briefly: Histone lysine demethylase AlphaLISA assay, KDM4C. The following applies: in vitro enzyme, read-out: KDM4C IC50 (HDME Inhibition). The method, then: Histone lysine demethylase AlphaLISA assays are performed to determine IC50 values. […] Assays are performed analogously to the protocol described by PerkinElmer (Roy et al. PerkinElmer Technical Note: AlphaLISA #12, April 2011).
Assays are performed analogously to the protocol described by PerkinElmer (Roy et al. PerkinElmer Technical Note: AlphaLISA #12, April 2011).
Enzymes (final assay concentration 0.1-2.5 nM) are dissolved in enzyme buffer and incubated for 10 min before 5 μL is added to 5 μL 3% DMSO solutions of compounds in enzyme buffer, incubated for another 10 minutes, before 5 μL substrate solution is added and the reaction mixture is incubated at room temperature. 10 μL acceptor beads, suspended Epigenetic Buffer (Perkin Elmer AL008) from stock, are added and the suspension is incubated in the dark at room temperature, before 10 μL suspension of streptavidin donor beads (Perkin Elmer 6760002) in Epigenetic Buffer is added. After incubation at room temperature in the dark the plates are read.
Substrate solution: Substrate (final assay concentration 50-200 nM), 50 mM Hepes (pH 7.4-8.0), 0.003% Tween-20, 0.1% BS, 25 μM L-Asc, 10 μM α-KG. Enzyme Buffer: 50 mM Hepes (pH 7.4-8.0), 0.003% Tween-20, 0.1% BSA; 5 μM (NH4)2Fe(SO4)2

The next experiment addresses T2, KDM6A (UTX) (Homo sapiens, UniProt O15550).
T2 construct: 919-1401; host or cells: E. coli
Put plainly: Histone lysine demethylase AlphaLISA assay, KDM6A. The following applies: in vitro enzyme, read-out: KDM6A IC50 (HDME Inhibition).

The next experiment deals with T3, KDM5B (PLU-1) (Homo sapiens, UniProt Q9UGL1).
T3 construct: 1-809; host or cells: E. coli
T3 sequence (Q9UGL1 1-809): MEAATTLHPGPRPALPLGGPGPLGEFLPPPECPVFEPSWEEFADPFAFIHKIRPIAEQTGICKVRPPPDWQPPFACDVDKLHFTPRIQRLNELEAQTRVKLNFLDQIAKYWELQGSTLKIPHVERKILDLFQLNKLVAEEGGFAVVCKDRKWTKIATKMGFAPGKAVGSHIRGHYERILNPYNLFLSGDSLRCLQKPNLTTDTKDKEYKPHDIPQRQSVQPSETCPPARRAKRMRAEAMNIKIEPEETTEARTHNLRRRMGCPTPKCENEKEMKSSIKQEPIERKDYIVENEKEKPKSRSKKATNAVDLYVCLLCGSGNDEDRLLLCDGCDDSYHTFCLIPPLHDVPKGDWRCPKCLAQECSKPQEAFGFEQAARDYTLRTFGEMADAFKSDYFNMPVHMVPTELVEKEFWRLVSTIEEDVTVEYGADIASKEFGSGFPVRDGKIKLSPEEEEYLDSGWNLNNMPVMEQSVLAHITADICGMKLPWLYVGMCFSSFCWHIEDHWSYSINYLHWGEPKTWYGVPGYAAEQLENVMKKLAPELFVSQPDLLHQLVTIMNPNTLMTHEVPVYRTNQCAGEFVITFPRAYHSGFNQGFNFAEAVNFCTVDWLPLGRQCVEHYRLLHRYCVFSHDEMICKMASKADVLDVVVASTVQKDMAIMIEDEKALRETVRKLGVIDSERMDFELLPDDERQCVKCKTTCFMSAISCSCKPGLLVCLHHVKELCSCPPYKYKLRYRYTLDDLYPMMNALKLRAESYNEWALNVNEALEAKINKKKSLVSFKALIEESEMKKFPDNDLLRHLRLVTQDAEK
Put plainly: Histone lysine demethylase AlphaLISA assay, KDM5B. The following applies: in vitro enzyme, read-out: KDM5B IC50 (HDME Inhibition).

The next experiment concerns the target PHF8 (KDM7) (Homo sapiens, UniProt Q9UPP1). Put plainly: Histone lysine demethylase AlphaLISA assay, PHF8. The settings on record: in vitro enzyme, read-out: PHF8 IC50 (HDME Inhibition).

T2 sequence (O15550 919-1401): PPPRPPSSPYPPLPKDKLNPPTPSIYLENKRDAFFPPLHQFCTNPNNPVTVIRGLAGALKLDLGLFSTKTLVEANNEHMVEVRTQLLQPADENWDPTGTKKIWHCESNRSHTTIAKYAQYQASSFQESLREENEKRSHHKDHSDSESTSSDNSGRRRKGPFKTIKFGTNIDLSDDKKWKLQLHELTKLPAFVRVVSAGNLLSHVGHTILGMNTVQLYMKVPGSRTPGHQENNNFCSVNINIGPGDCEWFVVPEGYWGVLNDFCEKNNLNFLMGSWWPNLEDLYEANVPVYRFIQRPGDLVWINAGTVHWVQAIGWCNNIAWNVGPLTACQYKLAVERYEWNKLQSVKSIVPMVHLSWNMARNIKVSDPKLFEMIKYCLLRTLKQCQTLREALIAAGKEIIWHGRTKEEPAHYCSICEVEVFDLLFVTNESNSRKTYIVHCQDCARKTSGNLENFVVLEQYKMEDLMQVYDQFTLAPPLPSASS
Sequence of PHF8 (KDM7) (Q9UPP1 whole entry): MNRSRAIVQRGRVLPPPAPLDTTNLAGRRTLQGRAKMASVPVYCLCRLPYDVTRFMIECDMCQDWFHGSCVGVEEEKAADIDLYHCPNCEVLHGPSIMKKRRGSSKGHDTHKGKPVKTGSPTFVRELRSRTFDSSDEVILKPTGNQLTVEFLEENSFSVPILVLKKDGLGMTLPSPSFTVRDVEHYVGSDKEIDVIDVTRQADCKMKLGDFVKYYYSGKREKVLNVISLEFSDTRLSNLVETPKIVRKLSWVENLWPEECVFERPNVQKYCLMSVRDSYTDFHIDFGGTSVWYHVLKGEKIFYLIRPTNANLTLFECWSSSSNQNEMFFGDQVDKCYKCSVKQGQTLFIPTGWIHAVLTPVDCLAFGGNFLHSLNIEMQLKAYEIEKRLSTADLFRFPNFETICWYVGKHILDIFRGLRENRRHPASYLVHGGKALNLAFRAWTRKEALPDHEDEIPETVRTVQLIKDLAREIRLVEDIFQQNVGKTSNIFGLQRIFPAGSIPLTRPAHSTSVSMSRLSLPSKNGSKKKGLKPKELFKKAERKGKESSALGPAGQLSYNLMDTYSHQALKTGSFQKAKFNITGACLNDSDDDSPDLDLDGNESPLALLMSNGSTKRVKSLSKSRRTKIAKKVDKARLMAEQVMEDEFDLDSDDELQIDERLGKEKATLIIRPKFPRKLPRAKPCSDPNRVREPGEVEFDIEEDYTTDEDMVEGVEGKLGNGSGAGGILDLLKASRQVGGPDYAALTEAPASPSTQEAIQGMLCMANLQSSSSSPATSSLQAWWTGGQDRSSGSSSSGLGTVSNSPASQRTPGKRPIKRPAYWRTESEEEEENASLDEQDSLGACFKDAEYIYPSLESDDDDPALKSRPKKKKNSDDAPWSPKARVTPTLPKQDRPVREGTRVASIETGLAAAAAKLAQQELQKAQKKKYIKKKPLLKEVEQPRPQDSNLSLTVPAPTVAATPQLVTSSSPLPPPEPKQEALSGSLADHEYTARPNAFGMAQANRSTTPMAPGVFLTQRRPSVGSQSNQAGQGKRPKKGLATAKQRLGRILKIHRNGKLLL

With `O=C(O)c1ccnc(CNC2CCCc3cccnc32)c1` (centres unmarked) [Compound 94, 2-{[(5,6,7,8-tetrahydroquinolin-8-yl)amino]methyl} pyridine-4-carboxylic acid], the half-inhibitory concentration (IC50) on KDM4C (JMJD2C), at KDM6A (UTX) and on KDM5B (PLU-1) was > 2500 nM each time.

`O=C(O)c1ccnc(CN2CCC(c3ccc(F)cc3)n3ccnc3C2)c1` (centres unmarked) [Compound 50, 2-{[5-(4-fluorophenyl)-5H,6H,7H,8H,9H-imidazo[1,2-a][1,4]diazepin-8-yl]methyl}pyridine-4-carboxylic acid]: the IC50 on PHF8 (KDM7) is > 2500 nM; at KDM4C (JMJD2C), > 2500 nM; at KDM5B (PLU-1), 250 to 2500 nM.

In the case of `Cc1cn2c(n1)CCN(Cc1cc(C(=O)O)ccn1)CCC2` [Compound 67, 2-({2-methyl-5H,6H,7H,8H,9H,10H-imidazo[1,2-a][1,5]diazocin-8-yl}methyl)pyridine-4-carboxylic acid], the IC50 at KDM4C (JMJD2C), at KDM6A (UTX) and at KDM5B (PLU-1) was > 2500 nM in each case.

With `CSCC(NCC(=O)N1CCCCC1)c1cc(C(=O)O)ccn1` (centres unmarked) [Compound 42, 2-[2-(methylsulfanyl)-1-{[2-oxo-2-(piperidin-1-yl)ethyl]amino}ethyl] pyridine-4-carboxylic acid], the IC50 at KDM4C (JMJD2C), on KDM6A (UTX) and on KDM5B (PLU-1) was > 2500 nM in each case.

Consider `COc1ccc([C@@H](C)N2CC[C@H](CNCc3cc(C(=O)O)ccn3)C2=O)cc1` [Compound 79, 2-[({[(3R)-1-[(1R)-1-(4-methoxyphenyl)ethyl]-2-oxopyrrolidin-3-yl]methyl}amino)methyl]pyridine-4-carboxylic acid], for which the values for the IC50 at KDM4C (JMJD2C), on KDM6A (UTX) and at KDM5B (PLU-1) were < 250 nM, 250 to 2500 nM and < 250 nM, respectively.

Regarding `CC(N[C@@H](C)C(=O)NCc1ccncc1)c1cc(C(=O)O)ccn1` (stereo partly drawn) [Compound 15, 2-(1-{[(1S)-1-[(pyridin-4-ylmethyl)carbamoyl]ethyl]amino}ethyl)pyri-dine-4-carboxylic acid], the IC50 at KDM4C (JMJD2C), at KDM6A (UTX) and on KDM5B (PLU-1) was > 2500 nM in each case.

For the compound `O=C(O)c1ccnc(CN2CCCCn3ccnc3C2)c1` [Compound 51, 2-{5H,6H,7H,8H,9H,10H-imidazo[1,2-a][1,4]diazocin-9-ylmethyl}pyridine-4-carboxylic acid], the results for the 50% inhibitory concentration (IC50) on PHF8 (KDM7), on KDM4C (JMJD2C) and on KDM6A (UTX) were 250 to 2500 nM, < 250 nM and > 2500 nM, respectively.

As for `O=C(O)c1ccnc(CNC2CCCn3ccnc32)c1` (centres unmarked) [Compound 90, 2-[({5H,6H,7H,8H-imidazo[1,2-a]pyridin-8-yl}amino)methyl]pyri-dine-4-carboxylic acid], the values for the IC50 at PHF8 (KDM7), on KDM4C (JMJD2C) and on KDM5B (PLU-1) were < 250 nM, 250 to 2500 nM and < 250 nM, respectively.

On to `O=C(O)c1ccnc(CN2CCCC[C@@H]2CC(=O)N2CCCCC2)c1` [Compound 72, 2-{[(2R)-2-[2-oxo-2-(piperidin-1-yl)ethyl]piperidin-1-yl]methyl}pyridine-4-carboxylic acid], for which the half-inhibitory concentration (IC50) on KDM4C (JMJD2C), on KDM6A (UTX) and on KDM5B (PLU-1) was > 2500 nM throughout.

As to `C=Cc1ccnc2c1CCC2NCc1cc(C(=O)O)ccn1` (centres unmarked) [Compound 100, 2-[({4-ethenyl-5H,6H,7H-cyclopenta[b]pyridin-7-yl}amino)methyl]pyri-dine-4-carboxylic acid], the IC50 at PHF8 (KDM7) was < 250 nM; at KDM4C (JMJD2C), 250 to 2500 nM; on KDM5B (PLU-1) it was < 250 nM.

Turning to `C=CCN(CC=C)C(=O)[C@H](CCCCN(C)C(C)=O)NCc1cc(C(=O)O)ccn1` [Compound 21, 2-({[(1S)-1-[bis(prop-2-en-1-yl)carbamoyl]-5-(N-methylacetamido)pentyl]amino}methyl)pyri-dine-4-carboxylic acid], the IC50 is > 2500 nM on KDM4C (JMJD2C), > 2500 nM on KDM6A (UTX) and 250 to 2500 nM at KDM5B (PLU-1).

As to `O=C(O)c1ccnc(CNC2CCn3ccnc32)c1` (centres unmarked) [Compound 93, 2-[({5H,6H,7H-pyrrolo[1,2-a]imidazol-7-yl}amino)methyl]pyri-dine-4-carboxylic acid], the 50% inhibitory concentration (IC50) at KDM4C (JMJD2C) was 250 to 2500 nM; on KDM6A (UTX), > 2500 nM; at KDM5B (PLU-1), < 250 nM.

Take `CC(N[C@@H](C)C(=O)NCc1ccc([N+](=O)[O-])cc1)c1cc(C(=O)O)ccn1` (stereo partly drawn) [Compound 5, 2-(1-{[(1S)-1-{[(4-nitrophenyl)methyl]carbamoyl}ethyl]amino}ethyl)pyridine-4-carboxylic acid]: the IC50 at PHF8 (KDM7), on KDM4C (JMJD2C) and at KDM5B (PLU-1) was > 2500 nM in each case.

Consider `C[C@H](c1ccccc1)N1CC[C@H](CNCc2cc(C(=O)O)ccn2)C1=O` [Compound 82, 2-[({[(3R)-2-oxo-1-[(1R)-1-phenylethyl]pyrrolidin-3-yl]methyl}amino)methyl]pyridine-4-carboxylic acid], for which the figures for the IC50 on KDM4C (JMJD2C), on KDM6A (UTX) and at KDM5B (PLU-1) were < 250 nM, 250 to 2500 nM and < 250 nM, respectively.

On to `CC(N[C@@H](C)C(=O)NCc1cccc(C(=O)O)c1)c1cc(C(=O)O)ccn1` (stereo partly drawn) [Compound 1, 2-(1-{[(1S)-1-{[(3-carboxyphenyl)methyl]carbamoyl}ethyl]amino}ethyl)pyridine-4-carboxylic acid], for which the IC50 at KDM4C (JMJD2C) and at KDM6A (UTX) was > 2500 nM in each case.

Regarding `CCNC(=O)C1CN(Cc2cc(C(=O)O)ccn2)C1` [Compound 68, 2-{[3-(ethylcarbamoyl)azetidin-1-yl]methyl}pyridine-4-carboxylic acid], the IC50 at PHF8 (KDM7) was < 250 nM; at KDM4C (JMJD2C) it was 250 to 2500 nM; at KDM5B (PLU-1) it was 250 to 2500 nM.

Turning to `O=C(O)c1cnnc(CNCC(=O)N2CCCCC2)c1` [Compound 26, 6-({[2-oxo-2-(piperidin-1-yl)ethyl]amino}methyl) pyridazine-4-carboxylic acid], the IC50 was < 250 nM on KDM4C (JMJD2C), > 2500 nM on KDM6A (UTX) and < 250 nM on KDM5B (PLU-1).

With `O=C(O)c1ccnc(CNCc2nccn2C/C=C/c2ccccc2)c1` [Compound 13, 2-{[({1-[(2E)-3-phenylprop-2-en-1-yl]-1H-imidazol-2-yl}methyl)amino]methyl}pyridine-4-carboxylic acid], the IC50 at KDM4C (JMJD2C) was > 2500 nM; on KDM6A (UTX), > 2500 nM; at KDM5B (PLU-1), < 250 nM.

In the case of `CC(C)C[C@H](CO)NC(C)c1cc(C(=O)O)ccn1` (stereo partly drawn) [Compound 33, 2-(1-{[(2R)-1-hydroxy-4-methylpentan-2-yl]amino}ethyl)pyridine-4-carboxylic acid], the figures for the IC50 on KDM4C (JMJD2C), on KDM6A (UTX) and at KDM5B (PLU-1) were > 2500 nM, > 2500 nM and 250 to 2500 nM, respectively.

With `CCNC(=O)C[C@@H]1CCCCN1Cc1cc(C(=O)O)ccn1` [Compound 71, 2-{[(2S)-2-[(ethylcarbamoyl)methyl]piperidin-1-yl]methyl}pyridine-4-carboxylic acid], the half-maximal inhibitory concentration (IC50) at KDM4C (JMJD2C), on KDM6A (UTX) and at KDM5B (PLU-1) was > 2500 nM in each case.

For the compound `O=C(O)c1ccnc(CN2CCCn3ccnc3C2)c1` [Compound 53, 2-{5H,6H,7H,8H,9H-imidazo[1,2-a][1,4]diazepin-8-ylmethyl}pyridine-4-carboxylic acid], the IC50 at PHF8 (KDM7) was > 2500 nM; at KDM4C (JMJD2C), 250 to 2500 nM; at KDM6A (UTX), > 2500 nM.
